Results taken from patent publication US20050239656A1, “Pyridine compounds or salts thereof and herbicides containing the same” (priority 2002, published 2005).

What was measured:
japanese bulrush = test: Test Example 3: paddy pot test, application under submerged conditions; type: in vivo, Scirpus juncoides; conditions: submerged application at 0.5 leaf stage, visually observed 14 days after application, 0 = non-treated, 100 = complete kill
Description: (§1) Paddy field soil was put into a 1/1,000,000 ha pot, and seed of barnyardgrass and japanese bulrush were sown and slightly covered with soil. Then, the pot was left to stand still in a greenhouse in a state where the depth of flooding water was from 0.5 to 1 cm, and one day or two days later, tubers of japanese ribbon wapato were planted. Thereafter, the depth of flooding water was maintained at a level of from 3 to 4 cm, and when barnyardgrass and japanese bulrush reached a 0.5 leaf stage and japanese ribbon wapato reached a primary leaf stage, an aqueous diluted solution of a wettable powder or emulsifiable concentrate having the compound of the present invention formulated in accordance with a usual formulation method, was uniformly applied under submerged conditions by a pipette so that the dose of the active ingredient would be at a predetermined level. On the 14 days after the application of the herbicide, the growth of barnyard grass, japanese burlrush and japanese ribbon wapato was visually observed and on the 21st day after the application of the herbicide, the growth of rice was visually observed, and the herbicidal effects were evaluated by the growth-controlling degrees (%) ranging from 0 (equivalent to the non-treated plot) to 100 (complete kill), whereby the results shown in Table 5 were obtained.

rice (var. Nihonbare) = test: Test Example 3: paddy pot test, transplanted rice; type: in vivo, Oryza sativa L.; conditions: applied 4th day after transplantation, visually observed 21st day after application, 0 = non-treated, 100 = complete kill
Description: as §1, with “On the other hand, paddy field soil was put into a 1/1,000,000 ha pot and puddled and leveled, and the depth of flooding water was from 3 to 4 cm. Next day, rice (var. Nihonbare) of 2 leaf stage was transplanted in a depth of 3 cm. On the 4th day after the transplantation, the compound of the present invention was applied in the same manner as described above. On the 14 days” for “On the 14 days”

barnyardgrass = test: Test Example 3: paddy pot test, application under submerged conditions; type: in vivo, Echinochloa crus-galli L.; conditions: submerged application at 0.5 leaf stage, visually observed 14 days after application, 0 = non-treated, 100 = complete kill
Description: as §1

japanese ribbon wapato = test: as above; type: in vivo, Sagittaria pygniaea; conditions: submerged application at primary leaf stage, visually observed 14 days after application, 0 = non-treated, 100 = complete kill
Description: as §1

| SMILES | Growth controlling degree (%) Japanese bulrush (japanese bulrush; active ingredient 250 g/ha) [%] | Growth controlling degree (%) Rice (rice (var. Nihonbare); active ingredient 250 g/ha) [%] | Growth controlling degree (%) Barnyardgrass (barnyardgrass; active ingredient 250 g/ha) [%] | Growth controlling degree (%) Japanese bulrush (japanese bulrush; active ingredient 500 g/ha) [%] | Growth controlling degree (%) Rice (rice (var. Nihonbare); active ingredient 500 g/ha) [%] | Growth controlling degree (%) Barnyardgrass (barnyardgrass; active ingredient 500 g/ha) [%] | Growth controlling degree (%) Japanese ribbon wapato (japanese ribbon wapato; active ingredient 500 g/ha) [%] | other results |
| --- | --- | --- | --- | --- | --- | --- | --- | --- |
| CC(Oc1ccc(F)cc1F)C(=O)N(C)C(c1cnccc1C(F)(F)F)C(C)C (mixture of isomers) [I-138] | 100 | 10 | 98 |  |  |  |  |  |
| CC(Oc1ccc(Cl)cc1)C(=O)N(C)C(c1cnccc1C(F)(F)F)C(C)C (mixture of isomers) [I-139] | 98 | 10 | 98 |  |  |  |  |  |
| CC(Sc1ccccc1)C(=O)N(C)C(c1cnccc1C(F)(F)F)C(C)C (mixture of isomers) [I-140] | 98 | 0 | 98 |  |  |  |  |  |
| CC(Sc1ccc(Cl)cc1)C(=O)N(C)C(c1cnccc1C(F)(F)F)C(C)C (mixture of isomers) [I-141] | 98 | 20 | 100 |  |  |  |  |  |
| CC(C)C(c1cnccc1Br)N(C)C(=O)Cc1ccccc1 (racemic) [I-110] | 90 | 0 | 98 |  |  |  |  | Growth controlling degree (%) Japanese ribbon wapato (japanese ribbon wapato; active ingredient 250 g/ha): 20% |
| CC(C)C(c1cnccc1C(F)(F)F)N(C)C(=O)OCc1ccccc1 (racemic) [I-111] | 10 | 0 | 90 |  |  |  |  |  |
| CC(C)C(NC(=O)c1ccccc1)c1cnccc1C(F)(F)F (racemic) [I-115] |  |  |  | 40 | 20 | 70 | 20 |  |
| Cc1cc(F)ccc1CC(=O)N(C)C(c1cnccc1C(F)(F)F)C(C)C (racemic) [I-116] |  |  |  | 95 | 10 | 100 | 50 |  |
| CC(C)C(c1ccc(C(F)(F)F)nc1)N(C)C(=O)Cc1ccccc1 (racemic) [I-123] |  |  |  | 10 | 10 | 70 |  |  |
| CC(C)C(NC(=O)Cc1ccc(C(F)(F)F)cc1)c1cnccc1C(F)(F)F (stereo not drawn) [I-7] |  |  |  | 70 | 20 | 95 | 0 |  |
| CC(C)C(c1cnccc1C(F)(F)F)N(C)C(=O)Cc1ccc(-c2ccccc2)cc1 (stereo not drawn) [I-9] |  |  |  | 10 | 0 | 100 | 30 |  |
| CCN(C(=O)Cc1ccccc1)C(c1cnccc1C(F)(F)F)C(C)C (stereo not drawn) [I-24] |  |  |  | 95 | 40 |  | 100 |  |
| COc1ccccc1CC(=O)N(C)C(c1cnccc1C(F)(F)F)C(C)C (stereo not drawn) [I-35] | 95 | 0 | 100 |  |  |  |  | Growth controlling degree (%) Japanese ribbon wapato (japanese ribbon wapato; active ingredient 250 g/ha): 70% |
| CSc1ccc(CC(=O)N(C)C(c2cnccc2C(F)(F)F)C(C)C)cc1 (stereo not drawn) [I-37] | 50 | 0 | 100 |  |  |  |  | Growth controlling degree (%) Japanese ribbon wapato (japanese ribbon wapato; active ingredient 250 g/ha): 10% |
| CCCC(=O)NC(c1cnccc1C(F)(F)F)c1cccc2ccccc12 (stereo not drawn) [I-49] |  |  |  | 85 | 10 | 90 |  |  |
| CCCC(=O)N(C)C(c1cnccc1C(F)(F)F)c1cccc2ccccc12 (stereo not drawn) [I-50] |  |  |  | 95 | 10 | 95 |  |  |
| CC(C)C(c1cnccc1C(F)(F)F)N(C)C(=O)Cc1cccc2ccccc12 (stereo not drawn) [I-56] |  |  |  | 70 | 20 | 95 | 90 |  |
| CC(C)C(c1cnccc1C(F)(F)F)N(C)C(=O)Cc1ccc2ccccc2c1 (stereo not drawn) [I-58] |  |  |  | 40 | 35 | 100 | 0 |  |
| CC(C)C(c1cnccc1Cl)N(C)C(=O)Cc1ccc2ccccc2c1 (stereo not drawn) [I-59] |  |  |  | 10 | 10 | 90 | 60 |  |
| CC(C)C(c1cnccc1Cl)N(C)C(=O)Cc1ccc(F)cc1F (stereo not drawn) [I-71] |  |  |  |  |  |  |  | Growth controlling degree (%) Japanese bulrush (japanese bulrush; active ingredient 125 g/ha): 90%; Growth controlling degree (%) Rice (rice (var. Nihonbare); active ingredient 125 g/ha): 0%; Growth controlling degree (%) Barnyardgrass (barnyardgrass; active ingredient 125 g/ha): 90%; Growth controlling degree (%) Japanese ribbon wapato (japanese ribbon wapato; active ingredient 125 g/ha): 40% |
| CCN(C(=O)Cc1cccc(F)c1F)C(c1cnccc1C(F)(F)F)C(C)C (stereo not drawn) [I-77] | 95 | 0 | 98 |  |  |  |  | Growth controlling degree (%) Japanese ribbon wapato (japanese ribbon wapato; active ingredient 250 g/ha): 40% |
| CC(C)C(c1cnccc1C(F)(F)F)N(C)S(=O)(=O)C=Cc1ccc(Cl)cc1 (stereo not drawn) [I-142] | 60 | 10 | 100 |  |  |  |  |  |
| CC(C)C(c1cnccc1C(F)(F)F)N(C)C(=O)C(F)(F)c1ccccc1 (stereo not drawn) [I-143] | 98 | 10 | 98 |  |  |  |  |  |
| COc1ccc(S(=O)(=O)N(C)C(c2cnccc2C(F)(F)F)C(C)C)cc1 (stereo not drawn) [I-144] | 98 | 20 | 100 |  |  |  |  |  |
| CC(C)C(c1cnccc1C(F)(F)F)N(C)S(=O)(=O)c1ccc(C(C)(C)C)cc1 (stereo not drawn) [I-145] | 0 | 20 | 100 |  |  |  |  |  |
| C=CCCC(=O)N(C)C(c1cnccc1C(F)(F)F)C(C)C (stereo not drawn) [I-211] | 98 | 50 | 100 |  |  |  |  |  |
